Test results: paper PMC8689225, “Cardiac ryanodine receptor N-terminal region biosensors identify novel inhibitors via FRET-based high-throughput screening” (The Journal of Biological Chemistry, 2021)

Tests used:
mouse RyR2 NTR = molecular target: T1, mouse RyR2 NTR (Mus musculus, UniProt E9Q401, K30C/K441C, form not given); assay: FLT-FRET dose-response with AC-NTR biosensor; type: binding
T1 sequence (E9Q401 1-547 K30C/K441C): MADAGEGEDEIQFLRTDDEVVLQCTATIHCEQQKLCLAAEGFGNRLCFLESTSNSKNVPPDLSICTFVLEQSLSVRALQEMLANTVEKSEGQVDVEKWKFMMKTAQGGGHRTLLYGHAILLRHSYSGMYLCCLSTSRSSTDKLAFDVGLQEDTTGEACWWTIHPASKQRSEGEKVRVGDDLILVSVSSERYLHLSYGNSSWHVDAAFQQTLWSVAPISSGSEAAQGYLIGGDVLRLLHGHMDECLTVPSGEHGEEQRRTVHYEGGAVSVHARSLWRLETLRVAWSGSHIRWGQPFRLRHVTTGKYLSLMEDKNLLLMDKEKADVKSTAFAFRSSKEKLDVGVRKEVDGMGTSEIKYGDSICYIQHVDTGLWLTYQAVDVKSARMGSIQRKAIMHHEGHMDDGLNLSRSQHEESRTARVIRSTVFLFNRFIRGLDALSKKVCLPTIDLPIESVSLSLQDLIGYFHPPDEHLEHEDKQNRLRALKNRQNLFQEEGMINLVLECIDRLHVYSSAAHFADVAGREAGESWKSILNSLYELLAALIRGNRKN
Text: The NTR of mouse RyR2 (residues 1–547) was cloned and expressed as previously described ([27]). The DNA construct contains a 6×His tag, a maltose-binding protein (MBP) tag, and a tobacco etch virus (TEV) protease cleavage site. The seven native solvent-exposed cysteine residues were substituted with alanine residues, and two constructs were engineered with Cys substitutions at surface residues R383 and K441 (in the B and C domains, respectively; termed BC) and at K30 and K441 (in the A and C domains, respectively; termed AC) for labeling with spectroscopic probes such as appropriate donor–acceptor fluorophores for FRET (for the purpose of this report, these are considered the WT forms of AC and BC). A variant of the BC construct corresponding to the disease-associated mutant (R420Q) was also prepared. For this site-directed mutagenesis work, we used the QuikChange (Stratagene) and Phusion High-Fidelity PCR (Thermo Fisher Scientific) kits. The WT-NTR, R420Q-NTR, AC- and BC-NTR, AC- and BC-R420Q-NTR protein constructs were expressed in Escherichia coli Rosetta (DE3) pLacI cells at 18 °C and purified with a protocol adapted from previously published work ([26]). An amylose column was first applied after the cells were lysed by ultrasonication. The protein in the elution was then cleaved using TEV protease. The cleaved crude protein went through the second amylose column to separate from the MBP and then followed by a Superdex S-200 size exclusion column in a buffer consisting of 250 mM KCl, 10 mM HEPES, and 14 mM β-mercaptoethanol (pH 7.4). The NTR protein (3 μM) was then incubated in 10 mM HEPES, 250 mM KCl (pH 7.4, 2 h, 21 °C) with the fluorescent probes Alexa Fluor 488 maleimide (AF488, donor; 40 μM) and Alexa Fluor 568 maleimide (AF568, acceptor; 60 μM). The maleimide of the dye reacts with the thiols the Cys residues engineered into NTR, forming a covalently labeled protein. The Alexa dyes were added last to the reaction mixture, from 10 mM DMSO stock solutions. This reaction is not selective to one site (K30C or K441C), and we anticipate that there is a mixed population with K30C or K441C labeled with either AF488 (donor) or AF568 (acceptor). We focused on maximizing the fraction containing donor–acceptor pairs, thus maximizing FRET efficiency and the precision for detecting a change in structure as an indication that a compound interacts with the NTR biosensor. The labeling efficiency was determined by comparing the molar concentration of the bound dye, determined from UV-Vis absorbance, to the protein concentration, determined from gel densitometry. Essentially complete labeling was confirmed from electrospray ionization mass spectrometry. CD spectra of the WT-NTR and mutant R420Q-NTR constructs before and after labeling were recorded using a JASCO J-815 CD spectrometer (JASCO), confirming similar folding (Fig. S1).
The 1536-well assay plates were prepared as described in our previous reports ([21]). The LOPAC (Sigma-Aldrich) collection received in 96-well plates was reformatted into 384-well polypropylene intermediate plates (Greiner Bio-One) using a multichannel liquid handler, BioMek FX (Beckman Coulter), then transferred to 384-well Echo Qualified source plates (Labcyte Inc). Assay plates were prepared as previously described ([20]). On screening days, these plates were thawed out and were loaded with labeled NTR (5 μl, 20 nM final concentration) using a Multidrop Combi automated sample dispenser.
HTS measurements were conducted in a prototype top-read FLT plate reader (FLT-PR, Fluorescence Innovations, Inc), which reads each 1536-well plate in ∼3 min ([63], [64]). AF488 donor fluorescence was excited with a 473 nm microchip laser from Concepts Research Corporation, and the emission signal was split into two channels by a dichroic mirror and acquired with 517 ± 10 nm (channel 1) and 535 ± 7 nm band-pass filters (channel 2) (Semrock). […]

RyR1 [1] = molecular target: T2, RyR1 (Sus scrofa, UniProt P16960); assay: [3H]ryanodine binding to skeletal SR (HSR) vesicles; type: biochemical, pig; conditions: for EC50: EC50, [3H]ryanodine binding, skeletal HSR, Table S4
T2 construct: from tissue; host or cells: porcine longissimus dorsi muscle, heavy SR vesicles
T2 sequence (P16960 whole entry): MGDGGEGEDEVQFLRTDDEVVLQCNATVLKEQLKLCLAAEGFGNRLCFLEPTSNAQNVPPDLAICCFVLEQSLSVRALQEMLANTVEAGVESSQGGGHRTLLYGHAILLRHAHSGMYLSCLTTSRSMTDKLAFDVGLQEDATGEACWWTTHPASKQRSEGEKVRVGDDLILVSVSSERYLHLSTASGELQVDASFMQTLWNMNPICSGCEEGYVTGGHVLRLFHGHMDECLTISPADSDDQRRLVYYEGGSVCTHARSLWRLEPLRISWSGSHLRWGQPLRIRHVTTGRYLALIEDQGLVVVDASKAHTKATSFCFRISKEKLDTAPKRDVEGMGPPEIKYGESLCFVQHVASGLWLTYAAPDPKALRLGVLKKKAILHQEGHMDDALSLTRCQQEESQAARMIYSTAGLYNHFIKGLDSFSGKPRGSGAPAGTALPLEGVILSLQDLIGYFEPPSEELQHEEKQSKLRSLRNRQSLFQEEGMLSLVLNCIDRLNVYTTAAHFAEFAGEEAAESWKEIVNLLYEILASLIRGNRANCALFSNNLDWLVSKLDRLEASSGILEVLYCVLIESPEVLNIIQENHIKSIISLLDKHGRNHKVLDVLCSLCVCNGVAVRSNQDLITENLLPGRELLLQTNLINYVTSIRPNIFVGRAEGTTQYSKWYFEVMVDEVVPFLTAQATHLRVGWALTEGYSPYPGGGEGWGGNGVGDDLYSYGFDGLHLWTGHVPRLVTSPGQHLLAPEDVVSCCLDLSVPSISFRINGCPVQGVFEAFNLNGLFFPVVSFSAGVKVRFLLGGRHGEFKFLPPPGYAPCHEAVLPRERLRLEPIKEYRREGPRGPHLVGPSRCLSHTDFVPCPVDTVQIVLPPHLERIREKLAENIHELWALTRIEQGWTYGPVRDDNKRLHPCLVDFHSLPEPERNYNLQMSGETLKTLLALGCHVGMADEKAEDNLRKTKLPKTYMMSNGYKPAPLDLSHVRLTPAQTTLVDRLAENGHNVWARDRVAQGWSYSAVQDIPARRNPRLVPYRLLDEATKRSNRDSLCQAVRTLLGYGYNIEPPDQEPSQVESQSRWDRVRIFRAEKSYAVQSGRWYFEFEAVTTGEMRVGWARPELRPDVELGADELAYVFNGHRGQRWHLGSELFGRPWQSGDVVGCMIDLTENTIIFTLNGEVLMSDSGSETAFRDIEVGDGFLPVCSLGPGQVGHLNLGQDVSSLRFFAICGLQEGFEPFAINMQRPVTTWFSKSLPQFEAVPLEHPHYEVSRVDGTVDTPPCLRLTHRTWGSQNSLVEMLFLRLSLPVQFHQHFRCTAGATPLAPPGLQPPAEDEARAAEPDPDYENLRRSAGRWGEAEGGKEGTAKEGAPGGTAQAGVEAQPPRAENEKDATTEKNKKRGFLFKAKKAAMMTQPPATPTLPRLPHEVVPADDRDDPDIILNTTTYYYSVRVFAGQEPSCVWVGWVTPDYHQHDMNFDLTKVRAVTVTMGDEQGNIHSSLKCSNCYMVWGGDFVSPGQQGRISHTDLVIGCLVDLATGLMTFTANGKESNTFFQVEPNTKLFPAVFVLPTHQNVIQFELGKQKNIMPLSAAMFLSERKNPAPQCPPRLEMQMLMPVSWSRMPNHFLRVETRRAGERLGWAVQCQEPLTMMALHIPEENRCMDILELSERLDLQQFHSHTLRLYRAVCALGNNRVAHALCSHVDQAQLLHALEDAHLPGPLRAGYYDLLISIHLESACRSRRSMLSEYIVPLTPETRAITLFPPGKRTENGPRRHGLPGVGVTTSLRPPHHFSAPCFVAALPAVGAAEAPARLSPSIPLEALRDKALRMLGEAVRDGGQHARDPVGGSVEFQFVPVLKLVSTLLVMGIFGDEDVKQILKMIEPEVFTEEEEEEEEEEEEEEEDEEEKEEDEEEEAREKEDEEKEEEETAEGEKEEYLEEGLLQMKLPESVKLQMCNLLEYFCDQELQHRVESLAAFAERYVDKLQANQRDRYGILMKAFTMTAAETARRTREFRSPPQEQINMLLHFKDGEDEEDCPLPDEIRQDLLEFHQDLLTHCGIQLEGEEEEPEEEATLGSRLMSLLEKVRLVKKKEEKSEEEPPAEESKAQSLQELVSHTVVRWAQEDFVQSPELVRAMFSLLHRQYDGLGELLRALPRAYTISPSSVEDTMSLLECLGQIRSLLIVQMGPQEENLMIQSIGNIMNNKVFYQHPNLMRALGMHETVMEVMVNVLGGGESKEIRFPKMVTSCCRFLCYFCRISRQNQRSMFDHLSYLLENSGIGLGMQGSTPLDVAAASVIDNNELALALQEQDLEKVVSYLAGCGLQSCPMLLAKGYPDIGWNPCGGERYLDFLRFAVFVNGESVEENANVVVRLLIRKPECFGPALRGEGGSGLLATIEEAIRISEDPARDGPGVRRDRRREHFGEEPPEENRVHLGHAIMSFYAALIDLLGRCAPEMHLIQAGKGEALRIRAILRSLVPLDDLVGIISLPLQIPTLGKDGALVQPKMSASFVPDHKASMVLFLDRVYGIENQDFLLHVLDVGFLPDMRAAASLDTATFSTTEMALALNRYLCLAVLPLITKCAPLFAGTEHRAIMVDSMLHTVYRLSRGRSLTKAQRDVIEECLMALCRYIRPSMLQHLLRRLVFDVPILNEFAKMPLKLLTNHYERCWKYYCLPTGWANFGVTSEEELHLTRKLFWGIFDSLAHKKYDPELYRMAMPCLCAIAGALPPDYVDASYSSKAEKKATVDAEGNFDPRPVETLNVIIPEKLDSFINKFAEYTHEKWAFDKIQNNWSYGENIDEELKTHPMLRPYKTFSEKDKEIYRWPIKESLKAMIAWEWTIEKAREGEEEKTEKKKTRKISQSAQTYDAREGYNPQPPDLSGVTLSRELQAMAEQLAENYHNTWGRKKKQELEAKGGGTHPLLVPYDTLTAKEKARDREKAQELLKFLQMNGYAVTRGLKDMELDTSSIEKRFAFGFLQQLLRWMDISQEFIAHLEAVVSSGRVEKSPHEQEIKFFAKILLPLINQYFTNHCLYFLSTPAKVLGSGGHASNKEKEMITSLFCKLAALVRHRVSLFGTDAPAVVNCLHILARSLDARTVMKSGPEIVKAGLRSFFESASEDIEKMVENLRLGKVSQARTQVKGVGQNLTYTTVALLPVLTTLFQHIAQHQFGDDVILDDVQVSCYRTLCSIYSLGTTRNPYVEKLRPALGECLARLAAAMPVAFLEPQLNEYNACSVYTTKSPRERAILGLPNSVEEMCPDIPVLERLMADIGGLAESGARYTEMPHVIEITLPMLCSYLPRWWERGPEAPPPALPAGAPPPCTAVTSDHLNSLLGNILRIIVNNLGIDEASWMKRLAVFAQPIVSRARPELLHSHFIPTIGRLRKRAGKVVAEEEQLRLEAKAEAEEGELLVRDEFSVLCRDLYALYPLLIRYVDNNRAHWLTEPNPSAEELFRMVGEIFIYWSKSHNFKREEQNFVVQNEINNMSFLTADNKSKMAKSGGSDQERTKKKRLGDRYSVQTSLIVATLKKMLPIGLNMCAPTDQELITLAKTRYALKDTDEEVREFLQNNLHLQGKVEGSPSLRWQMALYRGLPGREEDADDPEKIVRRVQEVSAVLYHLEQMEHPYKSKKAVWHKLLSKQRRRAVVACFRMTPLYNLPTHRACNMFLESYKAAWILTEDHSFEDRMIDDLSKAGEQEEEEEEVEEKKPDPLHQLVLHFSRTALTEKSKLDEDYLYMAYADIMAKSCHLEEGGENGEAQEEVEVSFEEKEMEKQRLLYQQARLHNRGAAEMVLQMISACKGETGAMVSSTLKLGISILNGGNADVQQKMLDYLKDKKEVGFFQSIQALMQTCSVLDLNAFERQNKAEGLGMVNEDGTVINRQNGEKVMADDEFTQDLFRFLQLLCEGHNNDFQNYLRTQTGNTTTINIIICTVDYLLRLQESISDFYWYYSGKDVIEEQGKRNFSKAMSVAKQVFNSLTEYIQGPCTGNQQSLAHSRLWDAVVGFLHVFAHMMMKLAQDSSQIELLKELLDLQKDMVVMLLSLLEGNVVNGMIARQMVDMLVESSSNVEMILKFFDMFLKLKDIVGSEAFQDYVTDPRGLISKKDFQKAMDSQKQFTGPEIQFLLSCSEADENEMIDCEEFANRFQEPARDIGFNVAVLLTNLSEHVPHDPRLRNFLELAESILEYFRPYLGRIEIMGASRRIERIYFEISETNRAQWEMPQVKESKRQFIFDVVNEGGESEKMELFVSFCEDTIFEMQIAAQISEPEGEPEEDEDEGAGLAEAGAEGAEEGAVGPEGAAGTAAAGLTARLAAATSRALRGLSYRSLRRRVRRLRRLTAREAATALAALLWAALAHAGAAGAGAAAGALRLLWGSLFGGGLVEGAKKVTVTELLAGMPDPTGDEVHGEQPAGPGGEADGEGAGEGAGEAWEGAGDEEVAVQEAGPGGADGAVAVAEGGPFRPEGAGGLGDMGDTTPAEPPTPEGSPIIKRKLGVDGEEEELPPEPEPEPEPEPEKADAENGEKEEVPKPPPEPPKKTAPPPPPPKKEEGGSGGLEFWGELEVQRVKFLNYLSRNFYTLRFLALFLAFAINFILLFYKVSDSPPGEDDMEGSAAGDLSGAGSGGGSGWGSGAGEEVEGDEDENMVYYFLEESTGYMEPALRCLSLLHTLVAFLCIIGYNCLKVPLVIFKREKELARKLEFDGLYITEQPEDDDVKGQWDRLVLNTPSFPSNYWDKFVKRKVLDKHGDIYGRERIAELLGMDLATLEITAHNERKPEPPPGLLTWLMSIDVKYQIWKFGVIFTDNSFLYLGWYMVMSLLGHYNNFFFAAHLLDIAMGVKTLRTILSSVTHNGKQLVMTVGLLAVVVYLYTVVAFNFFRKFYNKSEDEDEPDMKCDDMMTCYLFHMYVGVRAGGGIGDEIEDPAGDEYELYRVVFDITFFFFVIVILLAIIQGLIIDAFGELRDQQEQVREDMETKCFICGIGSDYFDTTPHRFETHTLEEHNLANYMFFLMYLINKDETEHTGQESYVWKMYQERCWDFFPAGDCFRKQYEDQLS
Method: (§1) Crude sarcoplasmic reticulum membrane vesicles were isolated from porcine longissimus dorsi muscle and porcine cardiac left ventricle tissue by differential centrifugation of homogenized tissue, as established previously ([65]). Skeletal heavy SR (HSR) vesicles, which are enriched with RyR1, were isolated by fractionation of crude skeletal SR vesicles using a discontinuous sucrose gradient, in accordance with our published work ([65]). All vesicles were flash-frozen and stored at −80 °C.
(§2) In 96-well plates, skeletal SR membranes (HSR, 1 mg/ml) and cardiac SR membranes (CSR, 3 mg/ml) were preincubated with 1% DMSO or hit compound for 30 min at 22 °C in a solution containing 150 mM KCl, 5 mM GSH, 1 μg/ml Aprotinin/Leupeptin, 1 mM EGTA, and 65 μM or 1.02 mM CaCl2 (as determined by MaxChelator to yield 30 nM or 30 μM of free Ca^2+, respectively), 0.1 mg/ml of BSA, and 20 mM K-PIPES (pH 7.0). Nonspecific [^3H]ryanodine binding to SR was assessed by addition of 40 μM nonradioactively labeled ryanodine. Maximal [^3H]ryanodine binding was assessed by addition of 5 mM adenylyl-imidodiphosphate (AMP-PNP), and in the case of CSR, 20 mM caffeine was added. These control samples were each loaded over four wells per plate. Binding of [^3H]ryanodine (7.5 and 10 nM for CSR and HSR, respectively) was determined following a 3 h incubation at 37 °C and filtration through grade GF/B glass microfiber filters (Brandel Inc) using a Brandel Harvester. In 4 ml of Ecolite scintillation cocktail (MP biomedicals), [^3H]ryanodine retained on the filter was counted using a Beckman LS6000 scintillation counter.

RyR2 = molecular target: T3, RyR2 (Sus scrofa, UniProt A0A5G2R1W3); assay: [3H]ryanodine binding to cardiac SR (CSR) vesicles; type: biochemical, pig
T3 construct: from tissue; host or cells: porcine cardiac left ventricle, crude SR vesicles
Method: as §1, §2

α2-adrenergic receptors = tested on: α2-adrenergic receptors; parameters: method as in PMID 7969082; conditions: cited from earlier work
RyR1 [2] = molecular target: T4, RyR1 (Rattus norvegicus, UniProt F1LMY4); assay: t-tubule Ca2+ measurement of RyR1 leak in skinned skeletal muscle fibers; type: cell-based; conditions: 10 μM FA or 1 mM tetracaine, [Ca2+]cyto 200 nM
T4 construct: from tissue; host or cells: Wistar rat extensor digitorum longus (EDL), mechanically skinned single fibres
Method: All experimental methods using rodents were approved by the Animal Ethics Committees at The University of Queensland and were performed in accordance with the relevant guidelines and regulations. Five-month-old Wistar rats (UQ Biological Resources) were euthanized by asphyxiation via CO2 exposure, and the extensor digitorum longus (EDL) was rapidly excised. Once dissected, muscles were pinned to Sylgard set in a Petri dish containing paraffin oil.
Bundles of fibers were isolated and exposed to an internal solution containing rhod-5N, as described previously ([47]). After 15 min incubation, single skeletal muscle fibers were mechanically skinned and mounted in a custom-made chamber. […] For tracking Ca^2+ movements across the t-system membrane, images were continuously recorded in xyt mode with an aspect ratio of 256 × 512, with the long aspect of the image parallel with that of the preparation. Temporal resolution of imaging in this mode where the fluorescence signal was within the borders of the fiber was 0.8 s.
T-system rhod-5N fluorescence was converted to [Ca^2+]t-sys as previously described ([47]). To determine the effect of RyR modulators on the RyR Ca^2+ leak, isolated mechanically skinned fibers were continuously imaged as described above, to obtain a record of t-system rhod-5N fluorescence changes over time as the cytoplasmic solution bathing the fiber was changed. […]

[3] = tested on: rat skeletal muscle fibers; assay: Electrically evoked Ca2+ transients in skinned skeletal muscle fibers; type: cell-based; conditions: 10 μM FA or 1 mM tetracaine, 1 Hz
Text: Mechanically skinned fibers were isolated, mounted in a custom chamber, and bathed in a resting physiological solution containing rhod-2, as previously described ([21]). The Ca^2+-sensitive dye rhod-2 was used to track cytosolic Ca^2+ transients when exposed to electrical stimulation. Field pulses at 1 Hz frequency and 4 ms in duration were applied across platinum electrodes parallel to the long axis of the fiber. Imaging for electrical stimulation experiments was in xt mode, at a rate of 2 ms.line^−1. DMSO vehicle (0.01%), FA (10 μM), and tetracaine were added to the physiological solution. Each treatment was applied precisely at the seventh successive Ca^2+ transient.

Compound | ΔFLT (mouse RyR2 NTR; AC-NTR biosensor, 0 to 100 μM, CPNQ/corbadrine decrease FLT, FA/tacrolimus increase FLT) | EC50 relative to CPNQ (fold higher) (mouse RyR2 NTR; FRET dose-response) | EC50 (mouse RyR2 NTR; read-out: EC50, FRET dose-response, AC-NTR biosensor, Hill fit, Table S4) | EC50 (RyR1 [1]; [Ca2+] 30 nM) | EC50 (RyR1 [1]; [Ca2+], 30 µM) | maximum inhibitory effect on [3H]ryanodine binding (RyR1 [1]; skeletal SR, 30 nM Ca2+) | effect on [3H]ryanodine binding to RyR1 (RyR1 [1]; skeletal SR, 30 μM Ca2+) | EC50 (RyR2) | effect on [3H]ryanodine binding to RyR2 (RyR2; cardiac SR, 30 μM Ca2+) | binding affinity for α2-adrenergic receptors (α2-adrenergic receptors) | steady-state [Ca2+]t-sys (RyR1 leak) (RyR1 [2]) | electrically induced Ca2+ transient amplitude [3]
C[C@H](N)[C@H](O)c1ccc(O)c(O)c1 [corbadrine, 4-[(1R,2S)-2-amino-1-hydroxypropyl]benzene-1,2-diol] | ≈ 0.35 ns | ~3 fold | 3600 nM | 20 nM | 15300 nM | ~70% | strongly increased | 10 nM | slight activation at high concentrations | very high binding affinity |  | 
CCCCNc1ccc(C(=O)OCCN(C)C)cc1 [tetracaine] |  |  |  |  |  |  |  |  |  |  | full RyR inhibition | significantly decreased
